According to patent US11198681B2, “Heteroaryl inhibitors of PAD4” (Padlock Therapeutics, Inc., priority 2016, dated 2021):
Where two headings read alike, the source gives them in different places.

Biological target: hPAD4 (Homo sapiens (Human), UniProt Q9UM07)
Test: hPAD4 AR assay (Table 2)
Type: biochemical
[1] = read-out: hPAD4 AR pIC50 (converted)

Sequence of hPAD4 (Q9UM07 whole entry): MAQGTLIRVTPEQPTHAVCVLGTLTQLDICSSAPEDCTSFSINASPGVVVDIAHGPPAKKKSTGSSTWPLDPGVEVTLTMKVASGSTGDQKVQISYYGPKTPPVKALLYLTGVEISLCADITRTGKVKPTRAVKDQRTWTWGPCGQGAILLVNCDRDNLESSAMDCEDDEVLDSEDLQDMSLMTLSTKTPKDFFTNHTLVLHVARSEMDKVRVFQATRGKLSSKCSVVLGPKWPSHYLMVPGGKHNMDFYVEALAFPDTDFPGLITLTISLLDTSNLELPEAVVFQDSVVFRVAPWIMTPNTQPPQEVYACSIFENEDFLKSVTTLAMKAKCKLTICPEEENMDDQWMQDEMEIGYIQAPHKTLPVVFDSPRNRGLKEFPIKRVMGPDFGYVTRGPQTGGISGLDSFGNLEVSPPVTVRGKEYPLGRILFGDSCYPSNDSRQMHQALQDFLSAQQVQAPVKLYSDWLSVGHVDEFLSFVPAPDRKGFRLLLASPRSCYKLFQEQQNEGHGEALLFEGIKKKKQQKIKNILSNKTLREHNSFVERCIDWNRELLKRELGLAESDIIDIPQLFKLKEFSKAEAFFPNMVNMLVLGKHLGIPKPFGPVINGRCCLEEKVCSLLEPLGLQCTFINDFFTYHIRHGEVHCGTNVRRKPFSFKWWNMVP

SMILES	IC50 (read-out: hPAD4 AR IC50) [nM]	IC50 [1] [nM]
COc1cc(C(=O)N2C[C@H]3CC[C@@H]2[C@@H]3N)cc2nc(-c3ccc(C#N)n3C[C@@H](C)c3ccccc3)n(C)c12 [I-84]	< 1000	< 1000
Cn1c(-c2cnc(-c3ccccc3)n2CC2CC2)nc2cc(C(=O)N3C[C@H]4CC[C@@H]3[C@@H]4N)cc(F)c21 [I-87]	< 1000	< 1000
COc1cc(C(=O)N2C[C@H]3CC[C@@H]2[C@@H]3N)cc2nc(-c3ccc(C#N)n3C[C@H]3C[C@@](C)(OC)C3)n(C)c12 [I-89, 5-{5-[(1R,4R,7R)-7-Amino-2-azabicyclo[2.2.1]heptane-2-carbonyl]-7-methoxy-1-methyl-1H-1,3-benzodiazol-2-yl}-1-{[(1R,3S)-3-methoxy-3-methylcyclobutyl]methyl}-1H-pyrrole-2-carbonitrile]	< 1000	< 1000
CCn1c(-c2cnc(-c3ccccc3)n2CC2CC2)nc2cc(C(=O)N3C[C@H]4CC[C@@H]3[C@@H]4N)cc(OC)c21 [I-86, (1R,4R,7R)-2-{2-[1-(Cyclopropylmethyl)-2-phenyl-1H-imidazol-5-yl]-1-ethyl-7-methoxy-1H-1,3-benzodiazole-5-carbonyl}-2-azabicyclo[2.2.1]heptan-7-amine]	< 1000	< 1000
COc1cc(C(=O)N2C[C@H]3CC[C@@H]2[C@@H]3N)cc2nc(-c3ccc(C#N)n3CC(F)(F)F)n(C)c12 [I-82, 5-{5-[(1R,4R,7R)-7-Amino-2-azabicyclo[2.2.1]heptane-2-carbonyl]-7-methoxy-1-methyl-1H-1,3-benzodiazol-2-yl}-1-(2,2,2-trifluoroethyl)-1H-pyrrole-2-carbonitrile]	< 1000	< 1000
COc1cc(C(=O)N2C[C@H]3CC[C@@H]2[C@@H]3N)cc2nc(-c3ccc(C)nc3CC3CC3)n(C)c12 [I-115]	< 1000	< 1000
COc1cc(C(=O)N2C[C@H]3CC[C@@H]2[C@@H]3N)cc2nc(-c3ccc(C#N)n3C3CC3)n(C)c12 [I-81, 5-{5-[(1R,4R,7R)-7-Amino-2-azabicyclo[2.2.1]heptane-2-carbonyl]-7-methoxy-1-methyl-1H-1,3-benzodiazol-2-yl}-1-cyclopropyl-1H-pyrrole-2-carbonitrile]	< 1000	< 1000
COc1cc(C(=O)N2C[C@H]3CC[C@@H]2[C@@H]3N)cc2nc(-c3cccnc3CC3CC3)n(C)c12 [I-105, (1R,4R,7R)-2-{2-[2-(Cyclopropylmethyl)pyridin-3-yl]-7-methoxy-1-methyl-1H-1,3-benzodiazole-5-carbonyl}-2-azabicyclo[2.2.1]heptan-7-amine]	< 1000	< 1000
CCc1c(-c2nc3cc(C(=O)N4C[C@H]5CC[C@@H]4[C@@H]5N)cc(OC)c3n2C)ccn1S(=O)(=O)c1ccc(C)cc1 [I-92]	< 1000	< 1000
COc1cc(C(=O)N2C[C@H]3CC[C@@H]2[C@@H]3N)cc2nc(-c3cccc(=O)n3CC3CC3)n(C)c12 [I-102, 6-{5-[(1R,4R,7R)-7-Amino-2-azabicyclo[2.2.1]heptane-2-carbonyl]-7-methoxy-1-methyl-1H-1,3-benzodiazol-2-yl}-1-(cyclopropylmethyl)-1,2-dihydropyridin-2-one]	< 1000	< 1000

More lines, now with the values ahead:

IC50 (read-out: hPAD4 AR IC50) [nM]	IC50 [1] [nM]	SMILES
< 1000	< 1000	COc1cc(C(=O)N2C[C@H]3CC[C@@H]2[C@@H]3N)cc2nc(-c3ccc(Br)c(=O)n3CC3CC3)n(C)c12 [I-111]
< 1000	< 1000	COc1cc(C(=O)N2C[C@H]3CC[C@@H]2[C@@H]3N)cc2nc(-c3ccc(C#N)n3C[C@H](C)c3ccccc3)n(C)c12 [I-85]
< 1000	< 1000	COc1cc(C(=O)N2C[C@H]3CC[C@@H]2[C@@H]3N)cc2nc(-c3cccnc3CC3CC3C)n(C)c12 (some centres unmarked) [I-108]
> 10000	10000 to 100000	COc1cccc(-c2nc3cc(C(=O)N4C[C@H]5CC[C@@H]4[C@@H]5N)cc(OC)c3n2C)n1 [I-88]
< 1000	< 1000	COc1cc(C(=O)N2C[C@H]3CC[C@@H]2[C@@H]3N)cc2nc(-c3ccc(C)c(=O)n3CC3CC3)n(C)c12 [I-112, 6-{5-[(1R,4R,7R)-7-Amino-2-azabicyclo[2.2.1]heptane-2-carbonyl]-7-methoxy-1-methyl-1H-1,3-benzodiazol-2-yl}-1-(cyclopropylmethyl)-3-methyl-1,2-dihydropyridin-2-one]
< 1000	< 1000	COc1cc(C(=O)N2C[C@H]3CC[C@@H]2[C@@H]3N)cc2nc(-c3ccc(F)nc3CC3CC3)n(C)c12 [I-117, (1R,4R,7R)-2-{2-[2-(Cyclopropylmethyl)-6-fluoropyridin-3-yl]-7-methoxy-1-methyl-1H-1,3-benzodiazole-5-carbonyl}-2-azabicyclo[2.2.1]heptan-7-amine]
